# Test results published in patent US11273163B2, “Antiviral treatment” (priority 2020, dated 2022).
# System: SARS-CoV-2 B.1.1.7
# Experiment: microbe, parasite or virus in culture
# Type: cell-based
smiles,measurement,value
"CN1CCCC(n2nc(Cc3ccc(Cl)cc3)c3ccccc3c2=O)CC1 (stereo not shown) [Azelastine, 4-[(4-chlorophenyl)methyl]-2-(1-methylazepan-4-yl)phthalazin-1-one]",inhibition of infection,over 90%
